# Structures can show the parent of a compound that is named as a salt. Where two headings read alike, the source gives them in different places.
# Legend:
# anesthetized guinea-pig = experiment: Inotropic effect and lethal dose, slow intravenous infusion in anesthetized guinea-pig; type: in vivo; design: Maximum dose infused: unit not given here; settings: for Emax / ED80 / ED (max): Cavia porcellus, iv, 1.5 h; for Emax: read-out: Emax % increase in +dP/dTmax; for ED80: read-out: ED80 (inotropic potency, dose increasing +dP/dTmax by 80%); for ED (max): read-out: EDmax (dose inducing maximum positive inotropic effect); for % decrease from Emax after 20 min from the end of the infusion: duration of the inotropic effect; for Maximum dose infused: maximum dose infused in the survived animals; for Lethal dose/ED80 (safety ratio): calculated for the died animals
# [1] = target: Dog Kidney Na+, K+-ATPase (Canis lupus familiaris, UniProt P50997); experiment: Inhibition of the enzymatic activity of purified Na+,K+-ATPase (hydrolysis of 32P-ATP); type: biochemical
# fresh rat hepatocytes = experiment: Metabolism in fresh rat hepatocytes; settings: for % of compound metabolized after 60 minutes: test item nominal concentration 45 μM, 2590000-3084000 hepatocytes/ml
# [2] = test system: hypertensive ouabain-sensitive rats (OS rats); experiment: Systolic blood pressure fall in hypertensive ouabain-sensitive rats (OS rats); type: in vivo, rat; settings: 10 μg/kg/day by mouth for four weeks
# Method: The ability of these compounds to lower blood pressure was tested by using an animal model with induced hypertension, in particular, rats made hypertensive by chronic infusion of ouabain, according to Ferrari P., et al. J. Pharm. Exp. Ther. 1998, 285, 83-94.
# The procedure adopted to test the antihypertensive activity of the compounds on the above mentioned model was the following: systolic blood pressure (SBP) and heart rate (HR) were measured by an indirect tailcuff method. The blood pressure lowering effect was measured in hypertensive ouabain-sensitive rats. The compound, suspended in Methocel 0.5% (w/v), was administered daily at the dose of 10 μg/kg/day by mouth for four weeks. SBP and HR were measured weekly 6 hours after the treatment. The comparison are ouabain sensitive rats (OS rats) and non hypertensive rats (control), both treated only with Methocel 0.5% (w/v). As shown in the following Table 4, treatment with a compound of the present invention lowers the blood pressure of OS rats (170 mm Hg) to almost the level of control rats (150 mm Hg).
# [3] = slow i.v. infusion over 90 minutes, anesthetized guinea-pig, maximum increase in contractile force
# [4] = slow i.v. infusion over 90 minutes, anesthetized guinea-pig
# [5] = slow i.v. infusion over 90 minutes
# [6] = dog kidney enzyme, hydrolysis of 32P-ATP in presence and absence of compound, read-out: Na+, K+-ATPase Inhibition IC50
# [7] = read-out: Na+, K+-ATPase Inhibition IC50
SMILES,Emax (anesthetized guinea-pig; [3]),ED80 (anesthetized guinea-pig; [4]),ED (max) (anesthetized guinea-pig; [4]),% decrease from Emax after 20 min from the end of the infusion (anesthetized guinea-pig; anesthetized guinea-pig),Dead/treated (anesthetized guinea-pig; [4]),Maximum dose infused (anesthetized guinea-pig; [5]),"IC50 ([1]; Na+, K+-ATPase Inhibition IC50)",% of compound metabolized after 60 minutes (fresh rat hepatocytes),further results
"C[C@]12CC[C@H]3[C@@H](CC[C@@]4(O)CC(=NO[C@@H]5CCNC5)CC[C@]34C)[C@@H]1CCC2=O (mixture of isomers) [I-am, (E,Z) 3-(3-(R)-Pyrrolidinyl)oxyimino-5α-hydroxyandrostane-17-one hemifumarate]",221%,3.87 µmol/kg,15.3 µmol/kg,100%,0/3,25.2,210 nM,12%,–
"C#CC1CC2C3CCC(=O)C3(C)CCC2C2(C)CCC(=NOC3CCNC3)CC12 (mixture of isomers) [I-bb, (E,Z) 3-[3′-(R)-Pyrrolidinyl]oxyimino-6α-ethynylandrostane-17-one hydrochloride]",147%,3.7 µmol/kg,6.39 µmol/kg,29%,0/3,6.5,110 nM,–,–
"CC12CCC3C(CC(CCO)C4CC(=NOC5CCNC5)CCC43C)C1CCC2=O (mixture of isomers) [I-bc, (E,Z) 3-[3′-(R)-Pyrrolidinyl]oxyimino-6α-(2-hydroxyethyl)androstane-17-one hydrochloride]",183%,1.89 µmol/kg,5.08 µmol/kg,28%,0/3,6.3,–,–,"IC50 [1, 6]: 58 nM"
"C=C1C[C@H]2[C@@H]3CCC(=O)[C@@]3(C)CC[C@@H]2[C@@]2(C)CCC(=NO[C@@H]3CCNC3)C[C@]12O (mixture of isomers) [I-bh, (E,Z) 3-[3′-(R)-Pyrrolidinyl]oxyimino-5α-hydroxy-6-methylenandrostane-17-one hydrochloride]",173%,1.91 µmol/kg,3.8 µmol/kg,63%,0/3,6.4,12 nM,–,–
"C[C@]12CC[C@H]3[C@@H](C/C(=N\O)[C@@]4(O)CC(=NO[C@@H]5CCNC5)CC[C@]34C)[C@@H]1CCC2=O (mixture of isomers) [I-bp, (E,Z) 3-[3-(R)-Pyrrolidinyl]oxyimino-5α-hydroxy-6-(E)-hydroxyiminoandrostane-17-one hydrochloride]",226%,0.37 µmol/kg,1.8 µmol/kg,100%,–,4.3,–,8%,–
"CC12CCC3C(C(O)CC4CC(=NOC5CCNC5)CCC43C)C1CCC2=O (mixture of isomers) [I-cj, (E,Z) 3-[3′-(R)-Pyrrolidinyl]oxyimino-7α-hydroxyandrostane-17-one fumarate]",–,–,–,–,–,–,220 nM,20%,–
"CC1CC2CC(=NOC3CCNC3)CCC2(C)C2CCC3(C)C(=O)CCC3C12 (mixture of isomers) [I-cl, (E,Z) 3-[3′-(R)-Pyrrolidinyl]oxyimino-7β-methylandrostane-17-one hydrochloride]",187%,3.34 µmol/kg,6.34 µmol/kg,7%,0/3,6.4,150 nM,–,–
"CC12CCC3C(C(=O)C(CO)C4CC(=NOC5CCNC5)CCC43C)C1CCC2=O (mixture of isomers) [I-cs, (E,Z) 3-[3′-(R)-Pyrrolidinyl]oxyimino-6α-hydroxymethylandrostane-7,17-dione fumarate]",–,–,–,–,–,–,–,5%,"IC50 ([1]; Na+, K+-ATPase Inhibition IC50, dog kidney enzyme, hydrolysis of 32P-ATP in presence and absence of compound): 13 nM"
"C=C1C[C@@H]2[C@H](CC[C@]3(C)C(=O)CC[C@@H]23)[C@@]2(C)CC[C@@H](SC3CCNC3)CC12.O=C(O)/C=C/C(=O)O (mixture of isomers) [I-db, 3α-[3-(RS)-Pyrrolidinylthio]-6-methyleneandrostane-17-one fumarate]",–,–,–,–,–,–,–,25%,"HR beats/min. [2]: 387 beats/min.; HR % beats/min ([2]; change versus OS rats on vehicle): +6.6%; SBP mmHg ([2]; measured 6 hours after treatment, tail-cuff): 153.0 mmHg; SBP - % ([2]; versus OS rats on vehicle): 10.3%; SBP - mmHg (fall) ([2]; versus OS rats on vehicle): 17.0 mmHg; IC50 [1, 7]: 20000 nM"
"C[C@]12CCC(=NOCCN)CC1C(=O)C[C@@H]1[C@@H]2CC[C@]2(C)C(=O)CC[C@@H]12.Cl (mixture of isomers) [compd 22b, (EZ) 3-(2-aminoethoxyimino)androstane-6,17-dione hydrochloride, reference compound]",182%,1.82 µmol/kg,5.74 µmol/kg,100%,7/8,32.1,–,95%,Lethal dose/ED80 (safety ratio) (anesthetized guinea-pig; anesthetized guinea-pig): 22.6; metabolism in fresh rat hepatocytes within 60 minutes (in words) (fresh rat hepatocytes; 45 μM): almost completely metabolized
"CC12CCC3C(CC(O)C4CC(=NOC5CCNC5)CCC43C)C1CCC2=O (single isomer, unassigned) [I-an, hydrochloride]",–,–,–,–,–,–,580 nM,21%,–
"CON=C1CC2C3CCC(=O)C3(C)CCC2C2(C)CCC(=NOC3CCNC3)CC12 (single isomer, unassigned) [I-be]",–,–,–,–,–,–,260 nM,42%,–
"CON=C1CC2C3CCC(=O)C3(C)CCC2C2(C)CCC(=NOC3CCNC3)CC12O (single isomer, unassigned) [I-bw]",–,–,–,–,–,–,–,24%,"IC50 [1, 6]: 39 nM"
"CC12CCC3C(C(O)C(CO)C4CC(=NOC5CCNC5)CCC43C)C1CCC2=O (single isomer, unassigned) [I-dk, hydrochloride]",–,–,–,–,–,–,5.8 nM,5%,–
"CC12CCC3C(CC(O)C4CC(=NOC5CCNC5)CCC43C)C1CCC2=O (single isomer, unassigned) [I-dp, hydrochloride]",358%,3.92 µmol/kg,43.6 µmol/kg,–,2/2,148,1200 nM,–,Lethal dose/ED80 (safety ratio) (anesthetized guinea-pig; anesthetized guinea-pig): 49
"C[C@]12CCC(=NO[C@@H]3CCNC3)C[C@@H]1[C@@H](C(N)=O)C[C@@H]1[C@@H]2CC[C@]2(C)C(=O)CC[C@@H]12.Cl [I-at, (Z,E) 3-(3-(R)-Pyrrolidinyloxyimino)-6α-carbamoylandrostane-17-one hydrochloride]",–,–,–,16%,0/4,25.0,–,–,"ED80 (inotropic potency, dose increasing +dP/dTmax by 80%) (anesthetized guinea-pig; [4]): 2.21 µmol/kg; EDmax (dose inducing maximum positive inotropic effect) (anesthetized guinea-pig; [4]): 8.82 µmol/kg; Emax % increase in +dP/dTmax (anesthetized guinea-pig; [3]): 109%; IC50 [1, 7]: 140 nM"
"C=C1CC2C/C(=N/O[C@@H]3CCNC3)CC[C@]2(C)[C@H]2CC[C@]3(C)C(=O)CC[C@H]3[C@H]12.Cl (stereo partly drawn) [I-cg, (E,Z) 3-[3′-(R)-Pyrrolidinyl]oxyimino-7-methyleneandrostane-17-one hydrochloride]",–,–,–,–,–,–,–,28%,"IC50 [1, 7]: 240 nM"
